Results from patent publication US7414049B2, “4-oxo-2,3,4,5-tetrahydro-benzo[b][1,4]diazepine derivatives” (Hoffmann-La Roche Inc., priority 2006, dated 2008).
In brackets after ≈: the same amount, converted by molar mass.

Assays:
[1] = Microsome incubation, metabolic stability (human); type: in vitro ADME
Protocol: The compounds of formula I of the present invention are further characterized by high metabolic stability. This parameter is a prerequisite for good bioavailability, which is necessary to obtain medicaments with acceptable in-vivo activity. The metabolic stability has been tested by the following method:
Incubation mixtures consisted of liver microsomes (rat 1.0 mg prot/mL or human 2.0 mg prot/mL), test compound 10 μM, MgCl2 (3.3 mM), and an NADPH regenerating system consisting of glucose-6-phosphate dehydrogenase, NADPH and glucose-6-phosphate (equivalent to 1 mM NADPH) in a total volume of 1.0 mL of potassium phosphate buffer 100 mM pH 7.4. Reactions were initiated by addition of the NADPH regenerating system at 37° C. At the time of 1, 5, 9, 13, 17, 21, 25, and 29 min a 5 μL aliquot was directly analysed on a HPLC-MS/MS system consisting of a HP 1100 quaternary pump with degasser and a PE-Sciex API-2000 MS/MS spectrometer. The analytical column was a Waters Symmetry Shield RP8 (2.1*50 mm with a […] particle size). A polarity non linear gradient from phase A (MeOH/Ac. Form. 1% 20/80) to phase B (MeOH) was applied for a total run time of 2 minutes at a flow rate of 0.25 mL/min. The PE-Sciex API-2000 MS/MS spectrometer was used for detection of the parent compound. In vivo metabolic clearance was predicted according to published procedures [Houston, Biochem. Pharmacol. 47:1469-1479 (1994)]. In brief, the intrinsic clearance (Clearance, see table below) is calculated from the measured in vitro half-life taking into account incubation volume and microsomal protein used for the in vitro incubation. The intrinsic clearance is expressed in terms of μl/min/mg microsomal protein. For in vivo extrapolations, the hepatic extraction ratio (E) was calculated. Here it is reported the % MAB value which is equal to 1-E. The MAB (maximal achievable bioavailability) values express the maximal bioavailability that one can achieve with the given clearance values.

[2] = Microsome incubation, metabolic stability (mouse); type: in vitro ADME; settings: for microsomal CLint at 10 μM: pH 7.4, liver microsomes, test compound 10 μM, 37° C., read-out: Intrinsic clearance (mouse)
[3] = THESA assay, thermodynamic solubility; type: physicochemical; settings: 22.5 °C, aqueous buffer, thermodynamic from solid, 50 mM phosphate buffer
Protocol: In addition, the compounds of the present invention have been tested in a THESA assay for determination of the thermodynamic solubility.
Approximately 2 mg of each compound was added in excess to a 50 mM phosphate buffer, at room temperature (22.5±1° C.). Each sample was placed in a microanalysis tube, which was sonicated for 1 h and agitated for 2 h. All suspensions were left overnight. At the next day all pHs were measured with a pH-meter and the samples filtered with a micronic filterplate (MSGVN2250) to separate the solid material from the solution. Then, all solutions were analyzed by HPLC. The calibration line was established by different concentrations of the compound in DMSO. From this regression equation the solubility of the compound was determined.

[4] = maximal achievable bioavailability = 1-E, extrapolated from intrinsic clearance
[5] = comparison table, room temperature

CC(O)(C(=O)NCC(F)(F)C(F)(F)F)C(=O)N[C@H]1CN(C(=O)OCCO)c2ccccc2N(CCO)C1=O (single isomer, unassigned) [Example 14, (S)-5-(2-Hydroxy-ethyl)-3-[(S or R)-2-hydroxy-2-(2,2,3,3,3-pentafluoro-propylcarbamoyl)-propionylamino]-4-oxo-2,3,4,5-tetrahydro-benzo[b][1,4]diazepine-1-carboxylic acid 2-hydroxy-ethyl ester]
MAB (human) [1, 4]: 53.3%
microsomal CLint at 10 μM ([1]; pH 7.4, human liver microsomes 2.0 mg prot/mL, test compound 10 μM, 37° C., read-out: Intrinsic clearance (human)): 13.6 µL/min/mg
MAB (mouse) [2, 4]: 72.1%
microsomal CLint at 10 μM [2]: 12.3 µL/min/mg
solubility thermodynamic ([3]; room temperature (22.5±1° C.)): 5180 µg/mL (≈ 9.32 mM)

CC(O)(C(=O)NCC(F)(F)C(F)(F)F)C(=O)N[C@H]1CN(CCO)c2ccccc2N(CC(F)(F)F)C1=O (single isomer, unassigned) [Example 8, (R or S)-2-Hydroxy-N-[(S)-5-(2-hydroxy-ethyl)-2-oxo-1-(2,2,2-trifluoro-ethyl)-2,3,4,5-tetrahydro-1H-benzo[b][1,4]diazepin-3-yl]-2-methyl-N′-(2,2,3,3,3-pentafluoro-propyl)-malonamide]
MAB (human) [1, 4]: 100.0%
MAB (mouse) [2, 4]: 37.5%
microsomal CLint at 10 μM [2]: 52.7 µL/min/mg
solubility thermodynamic ([3]; room temperature (22.5±1° C.)): 2670 µg/mL (≈ 4.85 mM)

CC(C)(C(=O)NCC(F)(F)C(F)(F)F)C(=O)N[C@H]1CN(C(=O)OCC(F)(F)F)c2ccccc2N(CC(F)(F)F)C1=O [reference compound]
MAB (human) ([1]; comparison table): 19.6%
MAB (mouse) ([2]; comparison table): 28.4%
solubility thermodynamic [3, 5]: 16 µg/mL (≈ 0.0254 mM)

CC(C)(C(=O)NCC(F)(F)C(F)(F)F)C(=O)N[C@H]1CN(CC(F)(F)F)c2ccccc2NC1=O [reference compound]
MAB (human) ([1]; comparison table): 43.1%
MAB (mouse) ([2]; comparison table): 21.8%
solubility thermodynamic [3, 5]: < 1 µg/mL
